The text below walks through data of ChEMBL document CHEMBL5505969, “Discovery of new piperaquine hybrid analogs linked by triazolopyrimidine and pyrazolopyrimidine scaffolds with antiplasmodial and transmission blocking activities” (Eur J Med Chem, 2024).

The source made the active and inactive calls. The rule behind the calls is not given here.

Series [1] concerns Plasmodium falciparum. Kind of series: Resistance index, ratio of IC50 for antiplasmodial activity against sorbitol-synchronized ring stage MMV848 resistant Plasmodium falciparum 3D7 infected in erythrocytes to IC50 for antiplasmodial activity against sorbitol-synchronized ring stage chloroquine sensitive Plasmodium falciparum 3D7 infected in erythrocytes. The format is functional.

Series [2] has as its system Plasmodium falciparum. Description: Antiplasmodial activity against sorbitol-synchronized ring stage chloroquine, mefloquine and pyrimethamine resistant Plasmodium falciparum Dd2 harboring N86F/M74I/ N75E/[…] mutation in MDR1 gene, N51I/C59R/S108N mutation in DHFR gene and S436F/A437G/A613S mutation in DHPS gene infected in erythrocytes measured after 48 hrs by SYBR green dye based fluorescence analysis. The format is functional, organism-based. The note with it: Dd2, Erythrocyte.

Series [3] is described as follows: Cytotoxicity against human HepG2 cells assessed as reduction in cell viability incubated for 72 hrs by MTT assay. It is filed as toxicity, cell-based. For orientation: Formazan colour is commonly taken as a measure of viable cells.
In series [4] the test system is Plasmodium falciparum. Description: Antiplasmodial activity against sorbitol-synchronized ring stage chloroquine sensitive Plasmodium falciparum 3D7 infected in erythrocytes measured after 48 hrs by SYBR green dye based fluorescence analysis. It is filed as functional, organism-based. The note with it: 3D7, Erythrocyte.
Series [5] in a line: Ratio of IC50 for Plasmodium falciparum infected in erythrocytes measured after 24 hrs by SYBR green dye based fluorescence assay to IC50 for Plasmodium falciparum infected in erythrocytes measured after 72 hrs by SYBR green dye based fluorescence assay. It is filed as functional, Erythrocyte.
Series [6] addresses T1, Dihydroorotate dehydrogenase (quinone), mitochondrial (Plasmodium falciparum (isolate 3D7)) (UniProt Q08210).
T1 sequence (whole entry): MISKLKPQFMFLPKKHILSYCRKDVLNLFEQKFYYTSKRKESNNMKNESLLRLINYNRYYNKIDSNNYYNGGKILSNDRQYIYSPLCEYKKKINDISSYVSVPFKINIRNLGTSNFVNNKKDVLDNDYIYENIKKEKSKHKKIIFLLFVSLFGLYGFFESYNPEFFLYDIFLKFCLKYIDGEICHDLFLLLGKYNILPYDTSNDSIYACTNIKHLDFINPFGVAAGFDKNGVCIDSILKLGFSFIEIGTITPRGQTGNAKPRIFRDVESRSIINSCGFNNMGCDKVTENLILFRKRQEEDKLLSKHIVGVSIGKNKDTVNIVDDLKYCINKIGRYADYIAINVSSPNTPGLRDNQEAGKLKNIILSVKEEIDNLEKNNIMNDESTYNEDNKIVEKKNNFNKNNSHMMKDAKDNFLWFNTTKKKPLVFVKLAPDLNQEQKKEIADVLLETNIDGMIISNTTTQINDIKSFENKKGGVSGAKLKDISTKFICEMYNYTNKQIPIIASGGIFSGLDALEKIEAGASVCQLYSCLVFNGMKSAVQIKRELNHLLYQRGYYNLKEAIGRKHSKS
Description: Inhibition of Plasmodium falciparum DHODH at 100 uM measured over 60 secs by DCIP dye based colorimetric assay relative to control. The note with it: time > 60.0 sec.

The test system of series [7] is Plasmodium falciparum. Description: Antiplasmodial activity against sorbitol-synchronized ring stage atovaquone resistant Plasmodium falciparum TM90C6B harboring Y268S mutation in CYTB gene, Y184F mutation in MDR1 gene, N51I/C59R/S108N mutation in DHFR gene and S436F/A437G/A581G mutation in DHPS gene infected in erythrocytes measured after 48 hrs by SYBR green dye based fluorescence analysis. It is filed as functional, organism-based. The note with it: Erythrocyte.

Series [8] concerns the target T1, Dihydroorotate dehydrogenase (quinone), mitochondrial (Plasmodium falciparum (isolate 3D7)). Description: Inhibition of Plasmodium falciparum DHODH assessed as residual activity at 100 uM measured over 60 secs by DCIP dye based colorimetric assay relative to control. The note with it: time > 60.0 sec.
In series [9] the test system is Plasmodium falciparum. Description: Antiplasmodial activity against sorbitol-synchronized ring stage MMV848 resistant Plasmodium falciparum 3D7 infected in erythrocytes measured after 48 hrs by SYBR green dye based fluorescence analysis. The format is functional, organism-based. The note with it: 3D7, Erythrocyte.
Series [10] relates to Plasmodium falciparum. Description: Antiplasmodial activity against sorbitol-synchronized ring stage chloroquine resistant Plasmodium falciparum K1 infected in erythrocytes measured after 48 hrs by SYBR green dye based fluorescence analysis. It is filed as functional, organism-based. The note with it: K1, Erythrocyte.
Series [11] relates to Plasmodium falciparum. Description: Antiplasmodial activity against Plasmodium falciparum infected in erythrocytes assessed as reduction in parasite growth at 10 uM measured within 24 hrs. The format is functional, organism-based. The note with it: Erythrocyte.
In series [12] the test system is Plasmodium falciparum. Kind of series: Antiplasmodial activity against GFP expressing sorbitol-synchronized ring stage laboratory adapted Plasmodium falciparum 3D7HT assessed as reduction in infectivity by measuring inhibition of gametocyte formation at 10 uM treated for 72 hrs followed by replacement with fresh media without compound for 24 hrs and measured on day 4 by giemsa staining based microscopic analysis. It is filed as functional.

The subject of series [13] is Plasmodium falciparum. Description: Resistance index, ratio of IC50 for antiplasmodial activity against sorbitol-synchronized ring stage atovaquone resistant Plasmodium falciparum TM90C6B harboring Y268S mutation in CYTB gene, Y184F mutation in MDR1 gene, N51I/C59R/S108N mutation in DHFR gene and S436F/A437G/A581G mutation in DHPS gene infected in erythrocytes to IC50 for antiplasmodial activity against sorbitol-synchronized ring stage chloroquine sensitive Plasmodium falciparum 3D7 infected in erythrocytes. The format is functional.

For series [14], the system named is Plasmodium falciparum. Description: Resistance index, ratio of IC50 for antiplasmodial activity against sorbitol-synchronized ring stage chloroquine resistant Plasmodium falciparum K1 infected in erythrocytes to IC50 for antiplasmodial activity against sorbitol-synchronized ring stage chloroquine sensitive Plasmodium falciparum 3D7 infected in erythrocytes. The format is functional.

Series [15] relates to Plasmodium falciparum. Description: Antiplasmodial activity against Plasmodium falciparum infected in erythrocytes assessed as induction of parasite death by measuring appearance of multiple pyknotic nuclei at 10 uM measured after 24 to 72 hrs. The format is functional, organism-based. The note with it: Erythrocyte, time 24-72 hrs.
Series [16] relates to Plasmodium falciparum. Description: Resistance index, ratio of IC50 for antiplasmodial activity against sorbitol-synchronized ring stage 2-(1,1-difluoroethyl)-5-methyl-N-(4-(pentafluoro-l6-sulfaneyl)phenyl)-[1,2,4]triazolo[1,5-a]pyrimidin-7-amine resistant Plasmodium falciparum Dd2 infected in erythrocytes to IC50 for antiplasmodial activity against sorbitol-synchronized ring stage chloroquine sensitive Plasmodium falciparum 3D7 infected in erythrocytes. It is filed as functional.

Series [17] has as its system Plasmodium falciparum. Description: Potency index, ratio of chloroquine IC50 to test compound IC50 for antiplasmodial activity against sorbitol-synchronized ring stage chloroquine resistant Plasmodium falciparum K1 infected in erythrocytes measured after 48 hrs by SYBR green dye based fluorescence analysis. The format is functional, Erythrocyte.
Series [18] can be described thus: Selectivity index, ratio of CC50 for human HepG2 cells to IC50 for antiplasmodial activity against sorbitol-synchronized ring stage chloroquine sensitive Plasmodium falciparum 3D7 infected in erythrocytes. It is filed as toxicity, cell-based. The note with it: Plasmodium falciparum 3D7 in erythrocytes, read-out: Ratio CC50/IC50.
In a further series the test system is Plasmodium berghei. Kind of series: Antiplasmodial activity against GFP-expressing Plasmodium berghei HSP70 infected in CD-1 mouse assessed as inhibition of ookinete formation at 10 uM measured after 22 hrs by giemsa staining based microscopic analysis. It is filed as functional. The note with it: read-out: INH.
Series [19] deals with Plasmodium falciparum. Description: Antiplasmodial activity against sorbitol-synchronized ring stage 2-(1,1-difluoroethyl)-5-methyl-N-(4-(pentafluoro-l6-sulfaneyl)phenyl)-[1,2,4]triazolo[1,5-a]pyrimidin-7-amine resistant Plasmodium falciparum Dd2 infected in erythrocytes measured after 48 hrs by SYBR green dye based fluorescence analysis. It is filed as functional, organism-based. The note with it: Dd2, Erythrocyte.

Series [20] concerns Plasmodium falciparum. Description: Resistance index, ratio of IC50 for antiplasmodial activity against sorbitol-synchronized ring stage chloroquine, mefloquine and pyrimethamine resistant Plasmodium falciparum Dd2 harboring N86F/M74I/ N75E/[…] mutation in MDR1 gene, N51I/C59R/S108N mutation in DHFR gene and S436F/A437G/A613S mutation in DHPS gene infected in erythrocytes to IC50 for antiplasmodial activity against sorbitol-synchronized ring stage chloroquine sensitive Plasmodium falciparum 3D7 infected in erythrocytes. It is filed as functional.

Series [21] has as its target T2, Dihydroorotate dehydrogenase (quinone), mitochondrial (Plasmodium falciparum (isolate 3D7), UniProt Q08210).
T2 sequence (Q08210 whole entry): T1 sequence (whole entry)
Kind of series: Inhibition of Plasmodium falciparum DHODH.

Series [22] deals with Plasmodium falciparum. Kind of series: Potency index, ratio of chloroquine IC50 to test compound IC50 for antiplasmodial activity chloroquine-resistant against Plasmodium falciparum W2 by anti-[…] incorporation assay. The format is functional.
The target of series [23] is T2, Dihydroorotate dehydrogenase (quinone), mitochondrial. Description: Inhibition of Plasmodium falciparum DHODH measured over 60 secs by DCIP dye based colorimetric assay.
Series [24] concerns Plasmodium falciparum. Description: Antiplasmodial activity against Plasmodium falciparum 3D7. It is filed as functional, organism-based.

Take `Cc1cc(NCCCCCCCNc2ccnc3cc(Cl)ccc23)n2nc(C)cc2n1`: the “Ratio IC50” value in the series on Plasmodium falciparum [1] is given as 0.4; in [5] it was 0.8; with Plasmodium falciparum [13] it was 0.9; with Plasmodium falciparum [14], 1.5; with Plasmodium falciparum [16], 1; with Plasmodium falciparum [17], 3. In addition, in the series on Plasmodium falciparum [20], the “Ratio IC50” value was 0.8. Further, the IC50 – broadly, the midpoint of a concentration-inhibition curve – in the series on Plasmodium falciparum [2] came out at 38 nM; in the series on Plasmodium falciparum [4], 46 nM; in the series with Plasmodium falciparum [7], 40 nM; with Plasmodium falciparum [9], 20 nM; in the series on Plasmodium falciparum [10], 71 nM; with Plasmodium falciparum [19], 50 nM. Besides, the CC50 (in general, the concentration that lowers cell viability or growth by half) at 72 h in [3] worked out at 9700 nM. Further, the inhibition (usually the change of the read-out against control, counted positive when it falls) in series [6] is under 50%. Moreover, the Activity in series [8] came out at 89.4%. Moreover, the result in the series with Plasmodium falciparum [11] and in the series on Plasmodium falciparum [15] was Active. In addition, the inhibition at 10 µM in the series on Plasmodium falciparum [12] amounted to 66.5%. The selectivity ratio in series [18] turned out to be 211. In addition, the Percent inhibition of ookinete formation at 10 µM in the series with Plasmodium berghei was found to be 43%.

`Cc1cc(Nc2ccc3ccccc3c2)n2nc(C(F)(F)F)nc2n1`: inhibition in series [21] was half-maximal at 700 nM (IC50). Besides, the “Ratio IC50” value in the series with Plasmodium falciparum [22] is recorded as 10.

For the compound `Cc1cc(NCCCCCCCNc2ccnc3cc(Cl)ccc23)n2nc(C(F)(F)F)nc2n1`, the IC50 in [23] worked out at 4800 nM; in the series with Plasmodium falciparum [2], 330 nM; in the series with Plasmodium falciparum [4] it was 400 nM. For the same compound, the CC50 at 72 h in [3] turned out to be 13000 nM. The compound further displayed an inhibition in series [6] of 84%. In addition, the Activity in series [8] amounted to 16.4%. In addition, in the series on Plasmodium falciparum [12], the inhibition at 10 µM came out at 69%. In addition, the selectivity ratio in series [18] came out at 33. Moreover, the Percent inhibition of ookinete formation at 10 µM in the series on Plasmodium berghei came out at 20%. Moreover, in the series with Plasmodium falciparum [20], the “Ratio IC50” value was found to be 0.8.

In turn, `Clc1ccc2c(N3CCN(CCCN4CCN(c5ccnc6cc(Cl)ccc56)CC4)CC3)ccnc2c1` [PIPERAQUINE] registered an IC50 in the series with Plasmodium falciparum [24] of 60 nM.
